*1 amine or outer side, *2 acyl side, *3 side chain or, on linkers, in order; H or OH if unused. Where a SMILES comes first, the peptide text is derived from it. Side-chain parts run from the residue outwards. The star is where a group is joined. C16 diacid = O=C(O)CCCCCCCCCCCCCCC(=O)*; γGlu = O=C(O)[C@H](CCC(=O)[*:2])N[*:1]; AEEA = NCCOCCOCC(=O)O
Legend:
Type in all cases: cell-based
[1] = biological target: T1, human GIP receptor (Homo sapiens, UniProt P48546); experiment: cAMP agonism (CisBio cAMP Dynamic 2 HTRF assay); conditions: HEK293, read-out: cAMP agonism, % Efficacy, Table 1C, HEK-293 cells
T1 sequence (P48546 22-466): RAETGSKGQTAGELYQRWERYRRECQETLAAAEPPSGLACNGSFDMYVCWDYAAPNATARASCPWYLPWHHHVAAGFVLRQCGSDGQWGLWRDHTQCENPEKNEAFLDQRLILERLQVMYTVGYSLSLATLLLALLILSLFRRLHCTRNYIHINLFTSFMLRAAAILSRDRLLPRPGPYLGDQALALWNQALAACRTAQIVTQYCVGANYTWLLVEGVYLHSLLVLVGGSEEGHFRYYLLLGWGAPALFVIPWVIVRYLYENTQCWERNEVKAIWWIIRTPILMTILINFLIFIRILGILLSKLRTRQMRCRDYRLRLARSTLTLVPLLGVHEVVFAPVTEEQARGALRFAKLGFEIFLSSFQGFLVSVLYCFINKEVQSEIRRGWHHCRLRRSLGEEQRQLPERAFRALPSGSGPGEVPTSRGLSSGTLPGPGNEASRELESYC
Experimental: To test for agonistic properties at the GIP receptor, compounds were diluted and added to cells as described above and incubated for 30 min at 37° C. The resulting increase in intracellular cAMP was determined using the CisBio cAMP Dynamic 2 HTRF Assay Kit as described above.

[2] = biological target: T1, human GIP receptor; experiment: cAMP antagonism (CisBio cAMP Dynamic 2 HTRF assay); design: pCMV-Script vector; conditions: Table 1C, CisBio, HEK-293 cells; for IC50: cAMP antagonism, nM (IC50), agonist GIP1-42 at EC50
Summary of the method: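 Four-parameter fits of cAMP dose-response gave pIC50. cAMP fall was quantified by HTRF competition, ratio 665/620 nm after 60 min at room temperature, against a cAMP standard curve.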

[3] = biological target: T1, human GIP receptor; experiment: cAMP accumulation, antagonism (DiscoveRx HitHunter cAMP XS assay); design: host or cells: COS-7 (transient, calcium phosphate; pCMV-Script vector); conditions: Table 1B, DiscoveRx; for cAMP antagonism, % inhib: COS-7 cells, % inhibition of Emax; for IC50: cAMP antagonism, nM (IC50), transiently transfected COS-7 cells
Experimental: Transient transfected COS-7 cells expressing the human GIP receptor were seeded in white 96-well plates with a density of 3.5*10^4/well. The day after, the cells were washed twice with Hepes buffered saline (HBS) buffer and incubated with HBS and 1 mM 3-isobutyl-1-methylxanthine (IBMX) for 30 min at 37° C. To test for agonistic properties, ligands were added and incubated for 30 min at 37° C. In order to test for antagonistic properties, the cells were preincubated with the antagonists for 10 min prior to the addition of the agonist and subsequent incubated for 20 additional min. The HitHunter™ cAMP XS assay (DiscoveRx) was carried out according to the manufacturer's instructions.
In order to develop a GIP receptor antagonist with improved antagonistic properties, individual amino acid substitutions were conducted on GIP(3-30)NH2 and in particular at positions: 16, 18, 30 or 3, 16, 18, 30. The obtained peptides were lipidated at position 18 directly or via a linker. Both the agonistic and antagonistic profiles of the compounds were tested in cAMP accumulation experiments done in transiently transfected COS-7 cells expressing the human GIP receptor. To investigate if these mutated analogues still retained their antagonistic properties, their ability to inhibit a GIP-mediated cAMP response corresponding to 50-80% of maximum activation was examined.

[4] = biological target: T1, human GIP receptor; experiment: cAMP accumulation, agonism (DiscoveRx HitHunter cAMP XS assay); design: host or cells: COS-7 (transient, calcium phosphate; pCMV-Script vector); conditions: for cAMP agonism, Emax: Table 1B, DiscoveRx, COS-7 cells
Summary of the method: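 cAMP accumulation measured by HitHunter cAMP XS in COS-7 cells transiently expressing human GIP receptor, after 30 min in HBS with 1 mM IBMX at 37 °C. Antagonists preincubated 10 min before GIP giving 50-80% of maximum, then 20 min more; agonist mode used 30 min ligand exposure.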

Structure (SMILES)	Emax [1] [%]	cAMP antagonism, % inhib [2] [%]	cAMP antagonism, % inhib [3] [%]	IC50 [3] [nM]	cAMP agonism, Emax [4]	IC50 [2] [nM]	Emax ([4]; COS-7, read-out: cAMP agonism, Emax) [%]
CC[C@H](C)[C@H](NC(=O)[C@H](CO)NC(=O)[C@H](Cc1ccc(O)cc1)NC(=O)[C@H](CC(=O)O)NC(=O)[C@H](CO)NC(=O)[C@@H](NC(=O)[C@H](Cc1ccccc1)NC(=O)[C@@H](NC(=O)CNC(=O)[C@@H]1CCCN1)[C@@H](C)O)[C@@H](C)CC)C(=O)N[C@@H](C)C(=O)N[C@@H](CCSC)C(=O)N[C@@H](CC(=O)O)C(=O)N[C@@H](CCCNC(=N)N)C(=O)N[C@H](C(=O)N[C@@H](CCCCNC(=O)CC[C@H](NC(=O)CCCCCCCCCCCCCCC(=O)O)C(=O)O)C(=O)N[C@@H](CCC(N)=O)C(=O)N[C@@H](CCC(N)=O)C(=O)N[C@@H](CC(=O)O)C(=O)N[C@@H](Cc1ccccc1)C(=O)N[C@H](C(=O)N[C@@H](CC(N)=O)C(=O)N[C@@H](Cc1c[nH]c2ccccc12)C(=O)N[C@@H](CC(C)C)C(=O)N[C@@H](CC(C)C)C(=O)N[C@@H](C)C(=O)N[C@@H](CCC(N)=O)C(=O)N[C@@H](CCCNC(=N)N)C(N)=O)C(C)C)[C@@H](C)CC [AT506] (HELM PEPTIDE1{P.G.T.F.I.S.D.Y.S.I.A.M.D.R.I.K.Q.Q.D.F.V.N.W.L.L.A.Q.R.[am]}|PEPTIDE2{[O=C(O)CCCCCCCCCCCCCCC(=O)[*:2]].[gGlu]}$PEPTIDE1,PEPTIDE2,16:R3-2:R2$$$V2.0; N-terminus assumed)	5	78	90	91	No Agonism	–	–
CC[C@H](C)[C@H](NC(=O)[C@H](CO)NC(=O)[C@H](Cc1ccc(O)cc1)NC(=O)[C@H](CC(=O)O)NC(=O)[C@H](CO)NC(=O)[C@@H](NC(=O)[C@H](Cc1ccccc1)NC(=O)[C@@H](NC(=O)CNC(=O)[C@@H](N)CO)[C@@H](C)O)[C@@H](C)CC)C(=O)N[C@@H](C)C(=O)N[C@@H](CCSC)C(=O)N[C@@H](CC(=O)O)C(=O)N[C@@H](CCCNC(=N)N)C(=O)N[C@H](C(=O)N[C@@H](CCCCNC(=O)COCCOCCNC(=O)COCCOCCNC(=O)CC[C@H](NC(=O)CCCCCCCCCCCCCCC(=O)O)C(=O)O)C(=O)N[C@@H](CCC(N)=O)C(=O)N[C@@H](CCC(N)=O)C(=O)N[C@@H](CC(=O)O)C(=O)N[C@@H](Cc1ccccc1)C(=O)N[C@H](C(=O)N[C@@H](CC(N)=O)C(=O)N[C@@H](Cc1c[nH]c2ccccc12)C(=O)N[C@@H](CC(C)C)C(=O)N[C@@H](CC(C)C)C(=O)N[C@@H](C)C(=O)N[C@@H](CCC(N)=O)C(=O)N[C@@H](CCCNC(=N)N)C(N)=O)C(C)C)[C@@H](C)CC [AT516] (H-SGTFISDYSIAMDRIK([AEEA-AEEA-γGlu-C16 diacid])QQDFVNWLLAQR-NH2; N-terminus assumed)	0	88	100	31	No Agonism	–	–
CC[C@H](C)[C@H](NC(=O)[C@H](CO)NC(=O)[C@H](Cc1ccc(O)cc1)NC(=O)[C@H](CC(=O)O)NC(=O)[C@H](CO)NC(=O)[C@@H](NC(=O)[C@H](Cc1ccccc1)NC(=O)[C@@H](NC(=O)CNC(=O)[C@@H]1CCCN1)[C@@H](C)O)[C@@H](C)CC)C(=O)N[C@@H](C)C(=O)N[C@@H](CCSC)C(=O)N[C@@H](CC(=O)O)C(=O)N[C@@H](CCCNC(=N)N)C(=O)N[C@H](C(=O)N[C@@H](CCCCNC(=O)CCCCCCCCCCCCCCC(=O)O)C(=O)N[C@@H](CCC(N)=O)C(=O)N[C@@H](CCC(N)=O)C(=O)N[C@@H](CC(=O)O)C(=O)N[C@@H](Cc1ccccc1)C(=O)N[C@H](C(=O)N[C@@H](CC(N)=O)C(=O)N[C@@H](Cc1c[nH]c2ccccc12)C(=O)N[C@@H](CC(C)C)C(=O)N[C@@H](CC(C)C)C(=O)N[C@@H](C)C(=O)N[C@@H](CCC(N)=O)C(=O)N[C@@H](CCCNC(=N)N)C(N)=O)C(C)C)[C@@H](C)CC [AT500] (H-PGTFISDYSIAMDRIK(C16 diacid)QQDFVNWLLAQR-NH2; N-terminus assumed)	4	77	90	–	No Agonism	66.8	–
CC[C@H](C)[C@H](NC(=O)[C@H](CO)NC(=O)[C@H](Cc1ccc(O)cc1)NC(=O)[C@H](CC(=O)O)NC(=O)[C@H](CO)NC(=O)[C@@H](NC(=O)[C@H](Cc1ccccc1)NC(=O)[C@@H](NC(=O)CNC(=O)[C@@H](N)CCC(=O)O)[C@@H](C)O)[C@@H](C)CC)C(=O)N[C@@H](C)C(=O)N[C@@H](CCSC)C(=O)N[C@@H](CC(=O)O)C(=O)N[C@@H](CCCNC(=N)N)C(=O)N[C@H](C(=O)N[C@@H](CCCCNC(=O)COCCOCCNC(=O)COCCOCCNC(=O)COCCOCCNC(=O)CC[C@H](NC(=O)CCCCCCCCCCCCCCC(=O)O)C(=O)O)C(=O)N[C@@H](CCC(N)=O)C(=O)N[C@@H](CCC(N)=O)C(=O)N[C@@H](CC(=O)O)C(=O)N[C@@H](Cc1ccccc1)C(=O)N[C@H](C(=O)N[C@@H](CC(N)=O)C(=O)N[C@@H](Cc1c[nH]c2ccccc12)C(=O)N[C@@H](CC(C)C)C(=O)N[C@@H](CC(C)C)C(=O)N[C@@H](C)C(=O)N[C@@H](CCC(N)=O)C(=O)N[C@@H](CCCNC(=N)N)C(N)=O)C(C)C)[C@@H](C)CC [AT375] (H-EGTFISDYSIAMDRIK([AEEA-AEEA-AEEA-γGlu-C16 diacid])QQDFVNWLLAQR-NH2; N-terminus assumed)	6	83	100	–	No Agonism	23.3	–
CC[C@H](C)[C@H](NC(=O)[C@H](CO)NC(=O)[C@H](Cc1ccc(O)cc1)NC(=O)[C@H](CC(=O)O)NC(=O)[C@H](CO)NC(=O)[C@@H](NC(=O)[C@H](Cc1ccccc1)NC(=O)[C@@H](NC(=O)CNC(=O)CN)[C@@H](C)O)[C@@H](C)CC)C(=O)N[C@@H](C)C(=O)N[C@@H](CCSC)C(=O)N[C@@H](CC(=O)O)C(=O)N[C@@H](CCCNC(=N)N)C(=O)N[C@H](C(=O)N[C@@H](CCCCNC(=O)CC[C@H](NC(=O)CCCCCCCCCCCCCCC(=O)O)C(=O)O)C(=O)N[C@@H](CCC(N)=O)C(=O)N[C@@H](CCC(N)=O)C(=O)N[C@@H](CC(=O)O)C(=O)N[C@@H](Cc1ccccc1)C(=O)N[C@H](C(=O)N[C@@H](CC(N)=O)C(=O)N[C@@H](Cc1c[nH]c2ccccc12)C(=O)N[C@@H](CC(C)C)C(=O)N[C@@H](CC(C)C)C(=O)N[C@@H](C)C(=O)N[C@@H](CCC(N)=O)C(=O)N[C@@H](CCCNC(=N)N)C(N)=O)C(C)C)[C@@H](C)CC [AT502] (HELM PEPTIDE1{G.G.T.F.I.S.D.Y.S.I.A.M.D.R.I.K.Q.Q.D.F.V.N.W.L.L.A.Q.R.[am]}|PEPTIDE2{[O=C(O)CCCCCCCCCCCCCCC(=O)[*:2]].[gGlu]}$PEPTIDE1,PEPTIDE2,16:R3-2:R2$$$V2.0; N-terminus assumed)	13	65	85	52	–	–	5
